Earlier results as cited in patent US20240018135A1, “COMPOUND HAVING INHIBITORY ACTIVITY AGAINST O-GLUSACASE AND USE THEREOF” (MEDIFRON DBT INC., priority 2020, published 2024).

Molecular target: bacterial homolog of O-GlcNAcase from Clostridium perfringens (Clostridium perfringens (strain 13 / Type A), UniProt Q8XL08)
Conditions: cited from earlier work

Sequence of bacterial homolog of O-GlcNAcase from Clostridium perfringens (Q8XL08 31-1001 limits assumed): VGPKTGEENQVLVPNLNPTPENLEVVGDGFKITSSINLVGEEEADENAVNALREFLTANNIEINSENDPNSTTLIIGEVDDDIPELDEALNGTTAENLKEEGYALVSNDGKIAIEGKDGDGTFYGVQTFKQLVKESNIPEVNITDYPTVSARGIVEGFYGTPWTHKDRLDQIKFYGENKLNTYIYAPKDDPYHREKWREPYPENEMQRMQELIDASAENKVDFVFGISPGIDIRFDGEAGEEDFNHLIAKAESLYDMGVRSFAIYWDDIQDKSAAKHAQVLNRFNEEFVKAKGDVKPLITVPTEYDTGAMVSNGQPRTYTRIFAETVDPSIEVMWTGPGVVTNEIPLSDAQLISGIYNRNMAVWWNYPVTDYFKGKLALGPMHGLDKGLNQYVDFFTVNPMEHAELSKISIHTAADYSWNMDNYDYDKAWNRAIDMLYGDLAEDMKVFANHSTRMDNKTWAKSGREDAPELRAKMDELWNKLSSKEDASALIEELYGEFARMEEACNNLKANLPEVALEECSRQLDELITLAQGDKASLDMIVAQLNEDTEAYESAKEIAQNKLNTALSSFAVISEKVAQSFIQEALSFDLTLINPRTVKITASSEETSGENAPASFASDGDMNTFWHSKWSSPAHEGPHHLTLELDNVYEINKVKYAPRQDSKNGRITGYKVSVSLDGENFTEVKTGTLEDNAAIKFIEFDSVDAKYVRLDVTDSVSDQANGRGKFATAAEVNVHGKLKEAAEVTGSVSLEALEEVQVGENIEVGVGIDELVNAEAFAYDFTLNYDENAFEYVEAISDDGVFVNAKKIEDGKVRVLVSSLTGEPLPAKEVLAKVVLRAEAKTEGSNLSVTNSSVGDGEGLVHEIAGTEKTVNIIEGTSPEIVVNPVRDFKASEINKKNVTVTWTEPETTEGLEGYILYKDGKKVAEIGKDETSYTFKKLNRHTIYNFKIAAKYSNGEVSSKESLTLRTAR

## CC(C)C(=O)N[C@H]1c2nc(CCc3ccccc3)cn2[C@H](CO)[C@@H](O)[C@@H]1O [GlcNAcstatin]
  efficacy: picomolar
